Measurements taken from patent US6653289B1, “L-arabino-disaccharides of anthracyclines, processes for their preparation, and pharmaceutical compositions containing them” (Menarini Ricerche S.p.A., priority 1999, dated 2003).

Assays:
[1] = tested on: GLC-4 (pulmonary microcarcinoma); experiment: cytotoxicity in vitro on GLC-4; assay type: cell-based, human; conditions: read-out: IC50, concentration necessary for 50% inhibition of diseased cells growth, 24-h exposure to the drug
Excerpt: (§1) (R8=H, R9=R10=R12=OH, R11=NH2) described in patent application WO 95/09173 on lines H460 (pulmonary carcinoma) and GLC-4 (pulmonary microcarcinoma).

[2] = tested on: pulmonary microcytoma GLC-4; experiment: activity in vivo on human tumour line implanted s.c. in naked mice; conditions: GLC-4 s.c. in naked mice, 6 mg/kg every 3-4 days, 5 cycles (total 30 mg/kg); for LCK (Log Cell Kill): T-C/DT×3.32; for TWI % (300 mg), Tumour Weight Inhibition %: determined 7-10 days after last treatment
Method: The activity in vivo of (Ia), compared with that of (V), was also evaluated on a human tumour line implanted s.c. in naked mice (pulmonary microcytoma GLC-4) after administration of 6 mg/kg of drug every 3-4 days, for 5 treatment cycles.
The results obtained are shown in Table 2, which reports the Tumour Weight Inhibition % (TWI% determined 7-10 days after the last treatment) and the Log Cell Kill [LCK in animals treated according to the formula: T-C/DT×3.32, where T and C are the days that tumours take to reach the significant weight fixed in each test. in treated animals (T) and in controls (C)].

[3] = tested on: H460 (pulmonary carcinoma); experiment: cytotoxicity in vitro on H460; assay type: cell-based; conditions: read-out: IC50, concentration necessary for 50% inhibition of diseased cells growth, 24-h exposure to the drug
Excerpt: as §1

SMILES | IC50 [1] [nM] | LCK (Log Cell Kill) [2] | TWI % (300 mg), Tumour Weight Inhibition % [2] [%] | IC50 [3] [nM]
C[C@@H]1O[C@@H](O[C@@H]2[C@H](C)O[C@@H](O[C@H]3C[C@](O)(C(=O)CO)Cc4c(O)c5c(c(O)c43)C(=O)c3ccccc3C5=O)C[C@@H]2O)C[C@H](N)[C@H]1O.Cl [Ia, 7-O-[2,6-dideoxy-4-O-(2,3,6-trideoxy-3-amino-α-L-arabino-hexopyranosyl)-α-L-lyxo-hexopyranosyl]-4-demethoxy-doxorubicinone chlorhydrate] | 11 | 1.1 | 93 | 10
CC1OC(OC2C(O)CC(OC3CC(O)(C(=O)CO)Cc4c(O)c5c(c(O)c43)C(=O)c3ccccc3C5=O)OC2C)CC(N)C1O.Cl [V, 7-O-[2,6-dideoxy-4-O-(2,3,6-trideoxy-3-amino-α-L-lyxo-hexopyranosyl)-α-L-lyxo-hexopyranosyl]-4-demethoxy-doxorubicinone chlorhydrate] | 55 | 0.4 | 60 | 14
